Tests used:
Assay in all cases: selective drug sensitivity score (sDSS, relative to normal bone marrow) (sDSS (score)); higher = more potent and effective on the cell line relative to normal bone marrow cells
Details in all cases: 72 h
HAL-01 = system: HAL-01
697 = system: 697
COG-LL-402h = system: COG-LL-402h
NALM-16 = system: NALM-16
P12-ICHIKAWA = system: P12-ICHIKAWA
P30-OHKUBO = system: P30-OHKUBO
CCRF-HSB2 = system: CCRF-HSB2
NALL-1 = system: NALL-1
MN-60 = system: MN-60
MOLT-16 = system: MOLT-16
ALL-SIL = system: ALL-SIL
KASUMI-9 = system: KASUMI-9
PF-382 = system: PF-382
JURKAT = system: JURKAT
MOLT-14 = system: MOLT-14
MOLT-4 = system: MOLT-4
COG-LL-355h = system: COG-LL-355h
TMD5 = system: TMD5
KARPAS-45 = system: KARPAS-45
KOPN-8 = system: KOPN-8
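Note: ALL cell lines in 384-well plates, five doses spanning 10,000-fold, each plate scaled between vehicle and 100 µmol/L benzalkonium chloride controls, sDSS an adapted area-under-curve metric.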

Compound	selective drug sensitivity score (HAL-01)	selective drug sensitivity score 697	selective drug sensitivity score (COG-LL-402h)	selective drug sensitivity score (NALM-16)	selective drug sensitivity score (P12-ICHIKAWA)	selective drug sensitivity score (P30-OHKUBO)	selective drug sensitivity score (CCRF-HSB2)	selective drug sensitivity score (NALL-1)	selective drug sensitivity score (MN-60)	selective drug sensitivity score (MOLT-16)	selective drug sensitivity score (ALL-SIL)	selective drug sensitivity score (KASUMI-9)	selective drug sensitivity score (PF-382)	selective drug sensitivity score (JURKAT)	selective drug sensitivity score (MOLT-14)	selective drug sensitivity score (MOLT-4)	selective drug sensitivity score (COG-LL-355h)	selective drug sensitivity score (TMD5)	selective drug sensitivity score (KARPAS-45)	selective drug sensitivity score (KOPN-8)
Cc1c(-c2ccc(N3CCc4cccc(C(=O)Nc5nc6ccccc6s5)c4C3)nc2C(=O)O)cnn1CC12CC3CC(CC(C3)C1)C2 (top concentration 1000 nM)	-1.86	-1.76	16.5	-2.26	27.7	-2.26	10.2	0.14	-2.26	0.54	25.1	-2.26	12.5	7.34	6.34	23.6	18.2	-2.26	23.8	0.74
O=C(NOC[C@H](O)CO)c1ccc(F)c(F)c1Nc1ccc(I)cc1F (top concentration 1000 nM)	6.34	0.14	1.84	2.74	0.84	-4.16	0.44	-4.16	-3.56	-1.36	3.54	4.44	-2.36	-3.96	8.84	-1.96	6.94	2.94	-3.76	10.1
CO[C@@H](C)Cn1c(=O)n(C)c2cnc3ccc(-c4cncc(C(C)(C)O)c4)cc3c21 (top concentration 2500 nM)	1.98	9.78	5.48	-0.52	1.38	8.18	5.58	0.48	3.88	11.9	4.78	8.68	5.88	2.98	2.08	3.38	3.88	-1.22	2.08	13.9
Cc1cccc(CC(=O)N2CCc3c2ccc(-c2cn(C)c4ncnc(N)c24)c3F)n1 (top concentration 2500 nM)	2.92	3.42	-0.68	-0.68	2.82	3.52	2.82	-0.68	1.82	5.62	0.32	2.92	3.72	8.22	1.22	3.22	-0.28	-0.68	1.32	-0.68
CNC(=O)c1ccccc1Nc1nc(Nc2ccc3c(c2OC)CCC[C@H](N2CCN(CCO)CC2)C3)ncc1Cl (top concentration 5000 nM)	0.46	2.86	-0.84	-2.44	-2.84	6.36	-1.44	-3.34	-2.24	2.06	1.36	0.26	-2.54	-2.54	1.56	-0.74	6.96	-2.74	1.26	0.76
COc1cc2ncnc(Oc3cccc(NC(=O)Nc4cc(C(C)(C)C(F)(F)F)on4)c3)c2cc1OC (top concentration 10000 nM)	3.4	10.4	0.3	0	5.9	3.2	23.2	0.3	0	2.5	41.3	7.5	1.2	0	0.8	0	4.9	15.7	3.2	16.7
C[C@@H](Oc1cc(-n2cnc3ccc(CN4CCN(C)CC4)cc32)sc1C(N)=O)c1ccccc1C(F)(F)F (top concentration 10000 nM)	16.6	20.5	16.2	17.4	21.9	21.7	24.2	5.82	3.72	20.2	23.4	26	26.7	22.8	24.8	22.8	5.62	11.8	28.8	19.9
Nc1nccc(-c2c(-c3ccc(F)cc3)ncn2C2CCCCC2)n1 (top concentration 10000 nM)	1	4.8	0.7	0.9	0.1	4.3	3.4	0.1	0	2.6	1.5	1.7	0.8	0.1	0	0.4	0	1.5	0.6	9.2
O=C(O)c1ccc(-c2c[nH]c3ncc(-c4ccccc4)cc23)cc1C1CCCC1 (top concentration 10000 nM)	4.26	0.96	-1.44	-1.44	3.46	3.36	3.16	7.66	-1.44	3.66	4.26	0.66	-0.34	0.16	2.46	-0.94	-0.44	1.66	4.36	4.16
C[C@@H]1CN(CC(=O)Nc2ccc3c(c2)Cc2cccc(-c4cc(=O)cc(N5CCOCC5)o4)c2S3)C[C@H](C)O1 (top concentration 25000 nM)	-0.18	0.42	1.92	-2.18	-0.58	3.42	0.42	-2.18	-2.18	0.32	3.32	1.22	0.82	0.92	0.32	-0.08	3.02	-2.18	1.72	5.72
COc1ccc2[nH]cc(/C=C3\C(=O)Nc4ccc(NC(=O)CCN5CCCCC5)cc43)c2c1 (top concentration 50000 nM)	-3.42	-0.02	1.18	-2.42	-0.52	0.38	6.68	-2.52	0.28	-2.32	1.58	1.28	1.18	-3.22	0.98	-1.12	0.28	0.28	7.98	1.38
Cc1nn(C)c(COc2ccc(N3CCN(S(=O)(=O)N(C)C)CC3)cc2)c1-c1cccc2c(CCCOc3cccc4ccccc34)c(C(=O)O)n(CCN3CCOCC3)c12 (top concentration 50000 nM)	2.46	4.36	4.26	4.36	6.76	4.46	5.36	5.46	3.16	12.6	7.26	5.66	3.16	5.86	6.96	6.56	15.3	4.26	8.16	10.1
C[C@H](Nc1ncnc2[nH]cnc12)c1cc2ccc(F)cc2nc1-c1ccccn1 [AMG319] (top concentration 1000 nM)	10.4	0.18	5.88	-1.42	-1.42	4.08	-1.32	-1.42	-1.42	-1.42	-1.42	1.18	-1.42	-1.42	-1.42	-1.42	4.58	-1.42	-0.22	6.38
C=CCn1c(=O)c2cnc(Nc3ccc(N4CCN(C)CC4)cc3)nc2n1-c1cccc(C(C)(C)O)n1 [AZD1775] (top concentration 10000 nM)	8.34	15.4	10.2	6.64	13.6	13.7	13.6	4.84	2.74	17.5	10	14.6	12.4	11.3	14.3	14.6	7.24	4.94	14.9	14.1
NC(=O)Nc1cc(-c2cccc(F)c2)sc1C(=O)N[C@H]1CCCNC1 [AZD7762] (top concentration 1000 nM)	3.5	2.6	3.3	0.5	-0.5	3.3	8.2	-2.1	-4.9	-1.5	0	4.1	-0.5	-0.7	0.6	-1.3	-0.1	-1.1	1.8	3.4
Cc1cc([C@@H](C)Nc2ccccc2C(=O)O)c2nc(N3CCOCC3)cc(=O)n2c1 [AZD-6482] (top concentration 2500 nM)	6.62	3.12	6.52	0.42	0.42	9.12	2.12	7.42	0.02	-0.28	-0.28	5.82	2.62	-0.28	-0.28	1.52	6.92	-0.28	1.82	8.22
CN(C)Cc1c(C(=O)NCCOc2ccc(C(=O)NO)cc2)oc2ccccc12 [Abexinostat] (top concentration 10000 nM)	-0.44	6.96	13.4	0.56	4.66	5.56	6.36	1.06	-3.04	5.66	6.76	8.26	2.86	1.66	7.36	3.76	3.36	5.36	10.6	9.26
S=C(NCc1ccc2c(c1)OCO2)N1CCN(c2ncnc3c2oc2ccccc23)CC1 [Amuvatinib] (top concentration 10000 nM)	2.96	7.86	2.36	0.86	7.46	4.26	3.96	2.16	5.46	8.36	6.66	1.26	5.06	11.1	3.56	4.66	2.06	4.16	5.06	8.76
CC(=O)OC[C@H]1O[C@@H]([S-])[C@H](OC(C)=O)[C@@H](OC(C)=O)[C@@H]1OC(C)=O.CCP(CC)CC.[Au+] [Auranofin] (top concentration 2500 nM)	6.44	1.94	7.84	-0.56	-0.96	4.84	-1.86	3.14	-2.76	1.74	2.44	3.94	-1.36	-1.76	0.04	-0.46	6.34	3.84	0.94	11.6

Source: the supplement of paper PMC8967900
